PubChem BioAssay (NCI)
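Exposure lasted 48 hours, with cells grown in 96-well plates and compounds tested at five concentrations. At the GI50, growth is halved. TGI marks complete inhibition of growth.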

How the values were obtained:
Assay in all cases: NCI anticancer screen, dose series, 48 h
MOLT-4 leukemia = tested on: MOLT-4 leukemia
RPMI-8226 leukemia = tested on: RPMI-8226 leukemia
SK-MEL-2 melanoma = tested on: SK-MEL-2 melanoma
OVCAR-8 ovarian = tested on: OVCAR-8 ovarian
SF-268 CNS = tested on: SF-268 CNS
HS 578T breast = tested on: HS 578T breast
NCI-H522 lung = tested on: NCI-H522 lung
EKVX NSCLC = tested on: EKVX NSCLC
BT-549 breast = tested on: BT-549 breast
OVCAR-4 ovarian = tested on: OVCAR-4 ovarian
A498 renal = tested on: A498 renal
T-47D breast = tested on: T-47D breast
UACC-62 melanoma = tested on: UACC-62 melanoma
COLO 205 colon = tested on: COLO 205 colon
HCC-2998 colon = tested on: HCC-2998 colon
HL-60(TB) leukemia = tested on: HL-60(TB) leukemia
CAKI-1 renal = tested on: CAKI-1 renal
PC-3 prostate = tested on: PC-3 prostate
SNB-75 CNS = tested on: SNB-75 CNS
NCI/ADR-RES ovarian = tested on: NCI/ADR-RES ovarian
CCRF-CEM leukemia = tested on: CCRF-CEM leukemia
SN12C renal = tested on: SN12C renal
SF-539 CNS = tested on: SF-539 CNS
MCF7 breast = tested on: MCF7 breast
ACHN renal = tested on: ACHN renal
HOP-92 NSCLC = tested on: HOP-92 NSCLC
RXF 393 renal = tested on: RXF 393 renal
HOP-62 NSCLC = tested on: HOP-62 NSCLC
KM12 colon = tested on: KM12 colon
786-0 renal = tested on: 786-0 renal
LOX IMVI melanoma = tested on: LOX IMVI melanoma
NCI-H23 lung = tested on: NCI-H23 lung
SW-620 colon = tested on: SW-620 colon
A549 NSCLC = tested on: A549 NSCLC
K-562 leukemia = tested on: K-562 leukemia
OVCAR-5 ovarian = tested on: OVCAR-5 ovarian
SR leukemia = tested on: SR leukemia
MDA-MB-231 breast = tested on: MDA-MB-231 breast
SK-MEL-28 melanoma = tested on: SK-MEL-28 melanoma
DU-145 prostate = tested on: DU-145 prostate
HCT-15 colon = tested on: HCT-15 colon
MDA-MB-468 breast = tested on: MDA-MB-468 breast
UO-31 renal = tested on: UO-31 renal
M14 melanoma = tested on: M14 melanoma
NCI-H226 lung = tested on: NCI-H226 lung
OVCAR-3 ovarian = tested on: OVCAR-3 ovarian
UACC-257 melanoma = tested on: UACC-257 melanoma
MALME-3M melanoma = tested on: MALME-3M melanoma
U251 CNS = tested on: U251 CNS
SF-295 CNS = tested on: SF-295 CNS
SK-OV-3 ovarian = tested on: SK-OV-3 ovarian
IGROV1 ovarian = tested on: IGROV1 ovarian
NCI-H460 lung = tested on: NCI-H460 lung
TK-10 renal = tested on: TK-10 renal
MDA-MB-435 = tested on: MDA-MB-435
SNB-19 CNS = tested on: SNB-19 CNS
SK-MEL-5 melanoma = tested on: SK-MEL-5 melanoma
HCT-116 colon = tested on: HCT-116 colon

In the case of `O=C(COc1ccc(NC(=O)Nc2ccccc2)cc1)N=Nc1c(O)[nH]c2ccc([N+](=O)[O-])cc12`, the GI50 (MOLT-4 leukemia) is reported as 2.37 µM, the TGI (MOLT-4 leukemia) is reported as 5.08 µM and the GI50 (RPMI-8226 leukemia) is reported as 5.39 µM. The TGI (RPMI-8226 leukemia) was over 100 µM, the GI50 (SK-MEL-2 melanoma) was 1.76 µM and the TGI (SK-MEL-2 melanoma) was 3.46 µM. The GI50 (OVCAR-8 ovarian) was 1.89 µM, the TGI (OVCAR-8 ovarian) was 3.75 µM and the GI50 (SF-268 CNS) was 1.91 µM. For the same compound, the TGI (SF-268 CNS) was 4.08 µM, the GI50 (HS 578T breast) was 2.09 µM and the TGI (HS 578T breast) was 5.8 µM. For the same compound, the GI50 (NCI-H522 lung) was 1.61 µM, the TGI (NCI-H522 lung) was 3.15 µM and the GI50 (EKVX NSCLC) was 5.02 µM. The TGI (EKVX NSCLC) was 45.7 µM, the GI50 (BT-549 breast) was 1.89 µM and the TGI (BT-549 breast) was 5.37 µM. It also gave a GI50 (OVCAR-4 ovarian) of 1.84 µM, a TGI (OVCAR-4 ovarian) of 3.96 µM and a GI50 (A498 renal) of 11.4 µM. The TGI (A498 renal) was 32.5 µM, the GI50 (T-47D breast) was 1.71 µM and the TGI (T-47D breast) was 3.6 µM. It also gave a GI50 (UACC-62 melanoma) of 1.83 µM, a TGI (UACC-62 melanoma) of 3.92 µM and a GI50 (COLO 205 colon) of 1.94 µM. The TGI (COLO 205 colon) was 3.55 µM, the GI50 (HCC-2998 colon) was 2.24 µM and the TGI (HCC-2998 colon) was 5.15 µM. It also gave a GI50 (HL-60(TB) leukemia) of 8.08 µM, a TGI (HL-60(TB) leukemia) of over 100 µM and a GI50 (CAKI-1 renal) of 47.7 µM. For the same compound, the TGI (CAKI-1 renal) was over 100 µM, the GI50 (PC-3 prostate) was 2.05 µM and the TGI (PC-3 prostate) was 4.76 µM. The GI50 (SNB-75 CNS) was 1.46 µM, the TGI (SNB-75 CNS) was 3.39 µM and the GI50 (NCI/ADR-RES ovarian) was over 100 µM. For the same compound, the TGI (NCI/ADR-RES ovarian) was over 100 µM, the GI50 (CCRF-CEM leukemia) was 2.45 µM and the TGI (CCRF-CEM leukemia) was 6.17 µM. The GI50 (SN12C renal) was 1.65 µM, the TGI (SN12C renal) was 3.3 µM and the GI50 (SF-539 CNS) was 1.67 µM. It also gave a TGI (SF-539 CNS) of 3.14 µM, a GI50 (MCF7 breast) of 1.94 µM and a TGI (MCF7 breast) of 4.02 µM. It also gave a GI50 (ACHN renal) of 29.3 µM, a TGI (ACHN renal) of over 100 µM and a GI50 (HOP-92 NSCLC) of 1.76 µM. The TGI (HOP-92 NSCLC) was 3.39 µM, the GI50 (RXF 393 renal) was 2.31 µM and the TGI (RXF 393 renal) was 6.01 µM. It also gave a GI50 (HOP-62 NSCLC) of 2.42 µM, a TGI (HOP-62 NSCLC) of 7.08 µM and a GI50 (KM12 colon) of 1.95 µM. The TGI (KM12 colon) was 3.96 µM, the GI50 (786-0 renal) was 5.69 µM and the TGI (786-0 renal) was 23.8 µM. It also gave a GI50 (LOX IMVI melanoma) of 1.7 µM, a TGI (LOX IMVI melanoma) of 3.15 µM and a GI50 (NCI-H23 lung) of 2.09 µM. The TGI (NCI-H23 lung) was 4.27 µM, the GI50 (SW-620 colon) was 1.69 µM and the TGI (SW-620 colon) was 3.83 µM. For the same compound, the GI50 (A549 NSCLC) was over 100 µM, the TGI (A549 NSCLC) was over 100 µM and the GI50 (K-562 leukemia) was 3.02 µM. The TGI (K-562 leukemia) was 7.65 µM, the GI50 (OVCAR-5 ovarian) was 4.11 µM and the TGI (OVCAR-5 ovarian) was over 100 µM. For the same compound, the GI50 (SR leukemia) was 2.65 µM, the TGI (SR leukemia) was 6.32 µM and the GI50 (MDA-MB-231 breast) was 1.82 µM. It also gave a TGI (MDA-MB-231 breast) of 3.41 µM, a GI50 (SK-MEL-28 melanoma) of 1.79 µM and a TGI (SK-MEL-28 melanoma) of 3.65 µM. It also gave a GI50 (DU-145 prostate) of 3.88 µM, a TGI (DU-145 prostate) of over 100 µM and a GI50 (HCT-15 colon) of 99.8 µM. The TGI (HCT-15 colon) was over 100 µM, the GI50 (MDA-MB-468 breast) was 1.85 µM and the TGI (MDA-MB-468 breast) was 3.31 µM. For the same compound, the GI50 (UO-31 renal) was over 100 µM, the TGI (UO-31 renal) was over 100 µM and the GI50 (M14 melanoma) was 2.86 µM. The TGI (M14 melanoma) was 11.3 µM, the GI50 (NCI-H226 lung) was 2.31 µM and the TGI (NCI-H226 lung) was 5.94 µM. For the same compound, the GI50 (OVCAR-3 ovarian) was 1.66 µM, the TGI (OVCAR-3 ovarian) was 3.18 µM and the GI50 (UACC-257 melanoma) was 2.01 µM. The TGI (UACC-257 melanoma) was 4.91 µM, the GI50 (MALME-3M melanoma) was 1.63 µM and the TGI (MALME-3M melanoma) was 3.07 µM. It also gave a GI50 (U251 CNS) of 1.71 µM, a TGI (U251 CNS) of 3.12 µM and a GI50 (SF-295 CNS) of 6.27 µM. It also gave a TGI (SF-295 CNS) of 32.8 µM, a GI50 (SK-OV-3 ovarian) of 5.45 µM and a TGI (SK-OV-3 ovarian) of 21 µM. For the same compound, the GI50 (IGROV1 ovarian) was 3.43 µM, the TGI (IGROV1 ovarian) was 15.5 µM and the GI50 (NCI-H460 lung) was 1.89 µM. The TGI (NCI-H460 lung) was 4.58 µM, the GI50 (TK-10 renal) was 17.3 µM and the TGI (TK-10 renal) was 38.4 µM. For the same compound, the GI50 (MDA-MB-435) was 1.71 µM, the TGI (MDA-MB-435) was 3.26 µM and the GI50 (SNB-19 CNS) was 1.98 µM. It also gave a TGI (SNB-19 CNS) of 4.55 µM, a GI50 (SK-MEL-5 melanoma) of 2.15 µM and a TGI (SK-MEL-5 melanoma) of 5.09 µM. The GI50 (HCT-116 colon) was 1.72 µM and the TGI (HCT-116 colon) was 3.13 µM.
